Results reported in PMC11012124, “Synthesis of Novel Triazine-Based Chalcones and 8,9-dihydro-7H-pyrimido[4,5-b][1,4]diazepines as Potential Leads in the Search of Anticancer, Antibacterial and Antifungal Agents” (International Journal of Molecular Sciences, 2024).
≈ marks a conversion by molar mass, not a printed value.

What was measured:
NCI-H460 = assay: cells; conditions: Homo sapiens, NCI-H460, 48 h; for CC50: read-out: LC50
786-0 = assay: cells; conditions: Homo sapiens, 786-0, 48 h; for CC50: read-out: LC50
NCI-H522 = assay: cells; conditions: Homo sapiens, NCI-H522, 48 h; for CC50: read-out: LC50
NCI-H23 = assay: cells; conditions: Homo sapiens, NCI-H23, 48 h; for CC50: read-out: LC50
IGROV1 = assay: cells; conditions: Homo sapiens, IGROV-1, 48 h; for CC50: read-out: LC50
NCI/ADR-RES = assay: cells; conditions: Homo sapiens, 48 h; for CC50: read-out: LC50
SK-MEL-28 = assay: cells; conditions: Homo sapiens, SK-MEL-28, 48 h; for CC50: read-out: LC50
KM12 = assay: cells; conditions: Homo sapiens, KM12, 48 h; for CC50: read-out: LC50
SK-MEL-2 = assay: cells; conditions: Homo sapiens, SK-MEL-2, 48 h; for CC50: read-out: LC50
SNB-75 = assay: cells; conditions: Homo sapiens, SNB-75, 48 h; for CC50: read-out: LC50
SK-OV-3 = assay: cells; conditions: Homo sapiens, SK-OV-3, 48 h; for CC50: read-out: LC50
A549/ATCC = assay: cells; conditions: Homo sapiens, A549, 48 h; for CC50: read-out: LC50
K-562 = assay: cells; conditions: Homo sapiens, K562, 48 h; for GI50: K-562, 48 h; for CC50: read-out: LC50
HOP-92 = assay: cells; conditions: Homo sapiens, HOP-92, 48 h; for CC50: read-out: LC50
CAKI-1 = assay: cells; conditions: Homo sapiens, CAKI-1, 48 h; for CC50: read-out: LC50
MDA-MB-468 = assay: cells; conditions: Homo sapiens, MDA-MB-468, 48 h; for CC50: read-out: LC50
RXF 393 = assay: cells; conditions: Homo sapiens, RXF 393, 48 h
HCC-2998 = assay: cells; conditions: Homo sapiens, HCC 2998, 48 h; for CC50: read-out: LC50
SW-620 = assay: cells; conditions: Homo sapiens, SW-620, 48 h; for CC50: read-out: LC50
HCT-15 = assay: cells; conditions: Homo sapiens, HCT-15, 48 h; for CC50: read-out: LC50
[1] = tested on: M. tuberculosis ATCC 27294; assay: Antitubercular broth microdilution MIC; format: cell-based; conditions: Mycobacterium tuberculosis; M. tuberculosis ATCC 27294 (H37Rv); read-out: Minimum inhibitory concentration (MIC)
TK-10 = assay: cells; conditions: Homo sapiens, TK-10, 48 h; for CC50: read-out: LC50
SK-MEL-5 = assay: cells; conditions: Homo sapiens, SK-MEL-5, 48 h; for CC50: read-out: LC50
SNB-19 = assay: cells; conditions: Homo sapiens, SNB-19, 48 h
SR = assay: cells; conditions: Homo sapiens, 48 h

Question: For CN(C)c1nc(NCCNS(=O)(=O)c2ccc(C3=Nc4c(N)nc(N)nc4NC(c4ccc(F)cc4)C3)cc2)nc(Nc2ccc(F)cc2)n1 (centres unmarked) [31f], which GI50 (NCI-H460) is on record?
Answer: 4.74 µM

Question: What about the CC50 (NCI-H460) of the same molecule?
Answer: > 100 µM

Question: What about the GI50 (786-0) of the same molecule?
Answer: 4.77 µM

Question: And the CC50 (786-0)?
Answer: > 100 µM

Question: And the GI50 (NCI-H522)?
Answer: 34.8 µM

Question: And the CC50 (NCI-H522)?
Answer: > 100 µM

Question: What about the GI50 (NCI-H23) of the same molecule?
Answer: 54.1 µM

Question: What about the CC50 (NCI-H23) of the same molecule?
Answer: > 100 µM

Question: What about the GI50 (IGROV1) of the same molecule?
Answer: 5.01 µM

Question: What about the CC50 (IGROV1) of the same molecule?
Answer: > 100 µM

Question: What about the GI50 (NCI/ADR-RES) of the same molecule?
Answer: > 100 µM

Question: What about the CC50 (NCI/ADR-RES) of the same molecule?
Answer: > 100 µM

Question: What about the GI50 (SK-MEL-28) of the same molecule?
Answer: 15.7 µM

Question: And the CC50 (SK-MEL-28)?
Answer: > 100 µM

Question: And the GI50 (KM12)?
Answer: 4.69 µM

Question: What about the CC50 (KM12) of the same molecule?
Answer: > 100 µM

Question: And the GI50 (SK-MEL-2)?
Answer: 8.17 µM

Question: And the CC50 (SK-MEL-2)?
Answer: 29 µM

Question: What about the GI50 (SNB-75) of the same molecule?
Answer: 2.53 µM

Question: And the CC50 (SNB-75)?
Answer: 74 µM

Question: And the GI50 (SK-OV-3)?
Answer: > 100 µM

Question: And the CC50 (SK-OV-3)?
Answer: > 100 µM

Question: What about the GI50 (A549/ATCC) of the same molecule?
Answer: > 100 µM

Question: And the CC50 (A549/ATCC)?
Answer: > 100 µM

Question: What about the GI50 (K-562) of the same molecule?
Answer: 2.8 µM

Question: And the CC50 (K-562)?
Answer: > 100 µM

Question: And the GI50 (HOP-92)?
Answer: 3.09 µM

Question: What about the CC50 (HOP-92) of the same molecule?
Answer: 23.3 µM

Question: And the GI50 (CAKI-1)?
Answer: 6.5 µM

Question: What about the CC50 (CAKI-1) of the same molecule?
Answer: > 100 µM

Question: And the GI50 (MDA-MB-468)?
Answer: 2.15 µM

Question: What about the CC50 (MDA-MB-468) of the same molecule?
Answer: 6.24 µM

Question: What about the GI50 (RXF 393) of the same molecule?
Answer: 2.48 µM

Question: What about the GI50 (HCC-2998) of the same molecule?
Answer: 4.22 µM

Question: What about the CC50 (HCC-2998) of the same molecule?
Answer: > 100 µM

Question: And the GI50 (SW-620)?
Answer: 8.27 µM

Question: What about the CC50 (SW-620) of the same molecule?
Answer: > 100 µM

Question: What about the GI50 (HCT-15) of the same molecule?
Answer: > 100 µM

Question: And the CC50 (HCT-15)?
Answer: > 100 µM

Question: And the MIC [1]?
Answer: 1.2 µg/mL (≈ 1.71 µM)

Question: What about the GI50 (TK-10) of the same molecule?
Answer: > 100 µM

Question: What about the CC50 (TK-10) of the same molecule?
Answer: > 100 µM

Question: And the GI50 (SK-MEL-5)?
Answer: 3.36 µM

Question: What about the CC50 (SK-MEL-5) of the same molecule?
Answer: 14.9 µM

Question: What does the source list for COc1cc(/C=C/C(=O)c2cc(OC)c(OC)c(OC)c2)ccc1Oc1nc(NCCO)nc(N2CCOCC2)n1 [20d]?
Answer: GI50 (NCI-H460): 1.87 µM; CC50 (NCI-H460): 8.69 µM; GI50 (786-0): 3.46 µM; CC50 (786-0): 43.6 µM; GI50 (NCI-H522): 1.56 µM; CC50 (NCI-H522): 6.43 µM; GI50 (NCI-H23): 1.99 µM; CC50 (NCI-H23): 17.5 µM; GI50 (IGROV1): 2.45 µM; CC50 (IGROV1): 26.2 µM; GI50 (NCI/ADR-RES): 4.72 µM; CC50 (NCI/ADR-RES): 95.9 µM; GI50 (SK-MEL-28): 1.92 µM; CC50 (SK-MEL-28): 7.53 µM; GI50 (KM12): 2.99 µM; CC50 (KM12): > 100 µM; GI50 (SNB-19): 2.31 µM; CC50 (SNB-19; read-out: LC50): 29.9 µM; GI50 (SK-MEL-2): 2.76 µM; CC50 (SK-MEL-2): 33.1 µM; GI50 (SNB-75): 1.79 µM; CC50 (SNB-75): 24.2 µM; GI50 (SK-OV-3): 2.44 µM; CC50 (SK-OV-3): 22 µM; GI50 (A549/ATCC): 2.78 µM; CC50 (A549/ATCC): 42.2 µM; GI50 (K-562): 1.91 µM; CC50 (K-562): > 100 µM; GI50 (HOP-92): 2.75 µM; CC50 (HOP-92): 35.4 µM; GI50 (CAKI-1): 2.43 µM; CC50 (CAKI-1): 30.4 µM; GI50 (MDA-MB-468): 1.71 µM; CC50 (MDA-MB-468): 14.3 µM; GI50 (RXF 393): 1.75 µM; CC50 (RXF 393; read-out: LC50): 6.94 µM; GI50 (HCC-2998): 2.23 µM; CC50 (HCC-2998): 7.97 µM; GI50 (SW-620): 2.24 µM; CC50 (SW-620): 26.4 µM; GI50 (HCT-15): 1.6 µM; CC50 (HCT-15): 10.2 µM; GI50 (TK-10): 3.12 µM; CC50 (TK-10): 30.6 µM; GI50 (SR): 0.784 µM; CC50 (SR; read-out: LC50): > 100 µM; GI50 (SK-MEL-5): 1.77 µM; CC50 (SK-MEL-5): 6.19 µM
